Source: patent US9770452B2, “Quinoxaline derivatives as GPR6 modulators” (Takeda Pharmaceutical Company Limited, priority 2012, dated 2017)
pIC50: −log10 of the molar value. Structures can show the parent of a compound that is named as a salt.

Target: T1, GPR6 receptor (Homo sapiens, UniProt P46095)
T1 construct: expressed in transfected cells
Experiment: Inhibition of cAMP Activity of GPR6 In Vitro Assay (CHO-K1 cells, HTRF cAMP)
Assay type: cell-based
Conditions: compounds of Compound Table 1; inhibition of constitutive cAMP activity of GPR6 expressed in CHO-K1 cells; approximate IC50; read-out: IC50
In short: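 CHO-K1 cells with doxycycline-induced (1 μg/ml, 20 h) GPR6 treated with compounds 45 min at 37 °C in Ringer's buffer (pH 7.4) with 0.5% fatty acid free BSA. Constitutive cAMP measured by Lance HTRF Ultra cAMP; IC50 from four-parameter logistic fit.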

T1 sequence (P46095 whole entry): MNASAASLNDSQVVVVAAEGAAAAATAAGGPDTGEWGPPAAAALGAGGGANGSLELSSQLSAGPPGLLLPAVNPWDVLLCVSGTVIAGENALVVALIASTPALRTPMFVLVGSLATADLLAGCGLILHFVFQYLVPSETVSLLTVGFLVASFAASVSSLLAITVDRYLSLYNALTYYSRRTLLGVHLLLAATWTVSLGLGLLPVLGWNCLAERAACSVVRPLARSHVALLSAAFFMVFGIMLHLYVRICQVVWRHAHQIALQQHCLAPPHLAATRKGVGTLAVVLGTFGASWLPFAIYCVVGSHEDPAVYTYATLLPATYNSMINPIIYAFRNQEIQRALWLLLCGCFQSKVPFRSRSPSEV

Row | Compound | pIC50
1 | Clc1cccc(CN2CCN(c3nc4cccnc4nc3Nc3ccccc3)CC2)c1 [Cpd 22, 2-(4-(3-chlorobenzyl)piperazin-1-yl)-N-phenylpyrido[2,3-b]pyrazin-3-amine, 2,2,2-trifluoroacetic acid salt] | 5.12
2 | 2-(cyclopropylamino)-3-(4-tosylpiperazin-1-yl)quinoxaline-6-carbonitrile [Cpd 240] | 5.34
3 | N-cyclopropyl-2-(4-(2,5-difluorobenzyl)piperazin-1-yl)pyrido[3,4-b]pyrazin-3-amine, 2,2,2-trifluoroacetic acid salt [Cpd 292] | 7.25
4 | 6-bromo-N-cyclopropyl-3-(4-(2,4-difluorobenzyl)piperidin-1-yl)quinoxalin-2-amine, 2,2,2-trifluoroacetic acid salt [Cpd 495] | 7.74
5 | 3-(4-(4-chloro-2-fluorophenoxy)piperidin-1-yl)-N-isopropylpyrazino[2,3-d]pyridazin-2-amine, 2,2,2-trifluoroacetic acid salt [Cpd 643] | 7.82
6 | CC(C)CCNc1nc2ccccc2nc1N1CCN(Cc2cc(Cl)ccc2Cl)CC1 [Cpd 115, 3-(4-(2,5-dichlorobenzyl)piperazin-1-yl)-N-isopentylquinoxalin-2-amine, 2,2,2-trifluoroacetic acid salt] | 5.40
7 | 3-(4-(2,4-difluorobenzyl)piperazin-1-yl)-N-isopropylpyrazino[2,3-d]pyridazin-2-amine 2,2,2-trifluoroacetate [Cpd 650] | 6.00
8 | (4-chloro-2-fluorophenyl)(4-(2-((2,2-difluoroethyl)amino)pyrido[3,4-b]pyrazin-3-yl)piperazin-1-yl)methanone, 2,2,2-trifluoroacetic acid salt [Cpd 369] | 6.40
9 | (6-chloro-2,3-difluorophenyl)(1-(2-(cyclopropylamino)pyrido[3,4-b]pyrazin-3-yl)piperidin-4-yl)methanone, 2,2,2-trifluoroacetic acid salt [Cpd 569] | 7.21
10 | CC(C)Nc1nc2cnncc2nc1N1CCC(Oc2ccc(F)cc2F)CC1 [Cpd 633, 3-(4-(2,4-difluorophenoxy)piperidin-1-yl)-N-isopropylpyrazino[2,3-d]pyridazin-2-amine, 2,2,2-trifluoroacetic acid salt] | 8.40
11 | N-cyclopropyl-3-(4-((2,5-difluorophenyl)difluoromethyl)piperidin-1-yl)pyrido[3,4-b]pyrazin-2-amine [Cpd 540] | 7.34
12 | 8-bromo-N-cyclopropyl-3-(4-(2,5-dichlorobenzyl)piperazin-1-yl)quinoxalin-2-amine, 2,2,2-trifluoroacetic acid salt [Cpd 133] | 7.49
13 | (2-fluoro-4-methoxyphenyl)(1-(3-(isopropylamino)pyrazino[2,3-d]pyridazin-2-yl)piperidin-4-yl)methanone, 2,2,2-trifluoroacetic acid salt [Cpd 641] | 7.85
